Experimental data taken from patent US20200316083A1, “ANTIBACTERIAL COMPOSITIONS” (WOCKHARDT LIMITED, priority 2016, published 2020).

Tests used:
Type in all cases: cell-based
[1] = test system: E. coli 7MP producing Class A and Class C beta-lactamase enzymes; test: Time kill study against E. coli 7MP; settings: for Effect on bacterial count (in words): alone or in combination
Description: (§1) In general, the antibacterial activity of compositions according to invention was studied by performing time kill studies. In a typical time kill study, the freshly grown cultures were diluted to the required cell density (initial starting inoculum) in cation adjusted Muller Hinton broth medium (BD, USA). The antibacterial agents (either alone or in combination) at the required concentrations were added into the culture-containing medium. The samples were incubated under shaking condition (120 rpm) at 37° C. Enumeration of viable bacterial count was done every 2 hour by diluting in normal saline and plating on to the Tryptic Soya Agar plates (BD, USA). The plates were incubated for 24 hours to arrive at a viable bacterial count. The results are expressed in terms of log10 CFU/ml. In general, the decrease of 1 log10 CFU/ml corresponds to 90% killing of bacteria. Similarly, 2 log10 CFU/ml reductions indicates to 99% killing of bacteria and 3 log10 CFU/ml reductions is equal to 99.9% killing of bacteria.

[2] = test system: K. pneumoniae B-88 producing metallo beta-lactamase enzymes; test: Time kill study against K. pneumoniae B-88; settings: for Effect on bacterial count (in words): summary of Table 1, alone or in combination
Description: as §1

[3] = test system: A. baumanni 13301 producing Carbapenem hydrolysing beta-lactamase enzymes; test: Time kill study against A. baumanni 13301; settings: for Bacterial count (Log10 CFU/ml) 0 hours / Change in Log10 CFU/ml over 0 hour count after 24 hours / Bacterial count (Log10 CFU/ml) 2 hours / Bacterial count (Log10 CFU/ml) 4 hours / Bacterial count (Log10 CFU/ml) 6 hours / Bacterial count (Log10 CFU/ml) 8 hours / Bacterial count (Log10 CFU/ml) 24 hours: 4 mcg/ml alone; for Effect on bacterial count (in words): summary of Table 3, alone or in combination
Description: as §1

[4] = summary of Table 5, throughout the duration of the study

Structure (SMILES)	Change in Log10 CFU/ml over 0 hour count after 8 hours ([1]; Table 5, 4 mcg/ml alone) [Log10 CFU/ml]	Bacterial count (Log10 CFU/ml) 2 hours ([1]; Table 5, 4 mcg/ml alone) [Log10 CFU/ml]	Bacterial count (Log10 CFU/ml) 4 hours ([1]; Table 5, 4 mcg/ml alone) [Log10 CFU/ml]	Bacterial count (Log10 CFU/ml) 6 hours ([1]; Table 5, 4 mcg/ml alone) [Log10 CFU/ml]	Bacterial count (Log10 CFU/ml) 0 hours ([2]; 2 mcg/ml alone) [Log10 CFU/ml]	Change in Log10 CFU/ml over 0 hour count after 24 hours ([2]; 2 mcg/ml alone) [Log10 CFU/ml]	Bacterial count (Log10 CFU/ml) 2 hours ([2]; 2 mcg/ml alone) [Log10 CFU/ml]	Bacterial count (Log10 CFU/ml) 4 hours ([2]; 2 mcg/ml alone) [Log10 CFU/ml]	Bacterial count (Log10 CFU/ml) 6 hours ([2]; 2 mcg/ml alone) [Log10 CFU/ml]	Bacterial count (Log10 CFU/ml) 24 hours ([2]; 2 mcg/ml alone) [Log10 CFU/ml]	Effect on bacterial count (in words) [2]	Effect on bacterial count (in words) ([1]; summary of Table 2)	Bacterial count (Log10 CFU/ml) 0 hours [3] [Log10 CFU/ml]	Change in Log10 CFU/ml over 0 hour count after 24 hours [3] [Log10 CFU/ml]	Bacterial count (Log10 CFU/ml) 2 hours [3] [Log10 CFU/ml]	Bacterial count (Log10 CFU/ml) 4 hours [3] [Log10 CFU/ml]	Bacterial count (Log10 CFU/ml) 6 hours [3] [Log10 CFU/ml]	Bacterial count (Log10 CFU/ml) 8 hours [3] [Log10 CFU/ml]	Bacterial count (Log10 CFU/ml) 24 hours [3] [Log10 CFU/ml]	Effect on bacterial count (in words) [3]	further results
NC(=O)[C@@H]1CC[C@@H]2CN1C(=O)N2OS(=O)(=O)O [Avibactam, reference compound]	2.28	7.90	9.23	9.30	–	–	–	–	–	–	–	–	–	–	–	–	–	–	–	–	Bacterial count (Log10 CFU/ml) 8 hours ([1]; Table 5, 4 mcg/ml alone): 9.36 Log10 CFU/ml; Effect on bacterial count (in words) [1, 4]: did not reduce the bacterial count
O=C(O)[C@H]1/C(=C/CO)O[C@@H]2CC(=O)N21 [Clavulanic acid, reference compound]	2.28	7.90	9.23	9.30	–	–	–	–	–	–	–	–	–	–	–	–	–	–	–	–	Bacterial count (Log10 CFU/ml) 8 hours ([1]; Table 5, 4 mcg/ml alone): 9.36 Log10 CFU/ml; Effect on bacterial count (in words) [1, 4]: did not reduce the bacterial count
N#C[C@@H]1CC[C@@H]2CN1C(=O)N2OS(=O)(=O)O [Compound (B)]	–	–	–	–	7.28	2.12	8.27	9.04	9.18	9.40	could not reduce the bacterial count	could not reduce the bacterial count	6.88	2.16	8.04	8.74	8.90	9.20	9.04	could not reduce the bacterial count	Change in Log10 CFU/ml over 0 hour count after 24 hours ([1]; Table 2, 4 mcg/ml alone): 2.28 Log10 CFU/ml; Bacterial count (Log10 CFU/ml) 2 hours ([1]; Table 2, 4 mcg/ml alone): 7.90 Log10 CFU/ml; Bacterial count (Log10 CFU/ml) 4 hours ([1]; Table 2, 4 mcg/ml alone): 9.23 Log10 CFU/ml; Bacterial count (Log10 CFU/ml) 6 hours ([1]; Table 2, 4 mcg/ml alone): 9.30 Log10 CFU/ml; Bacterial count (Log10 CFU/ml) 24 hours ([1]; Table 2, 4 mcg/ml alone): 9.36 Log10 CFU/ml
O=C(NNC(=O)[C@@H]1CC[C@@H]2CN1C(=O)N2OS(=O)(=O)O)[C@@H]1CCCNC1 [Compound (C)]	–	–	–	–	7.28	1.26	7.60	8.26	8.18	8.54	could not reduce the bacterial count	could not reduce the bacterial count	6.88	2.35	8.13	8.85	9.19	9.02	9.23	could not reduce the bacterial count	Change in Log10 CFU/ml over 0 hour count after 24 hours ([1]; Table 2, 2 mcg/ml alone): −3.54 Log10 CFU/ml; Bacterial count (Log10 CFU/ml) 2 hours ([1]; Table 2, 2 mcg/ml alone): 6.30 Log10 CFU/ml; Bacterial count (Log10 CFU/ml) 4 hours ([1]; Table 2, 2 mcg/ml alone): 4.93 Log10 CFU/ml; Bacterial count (Log10 CFU/ml) 6 hours ([1]; Table 2, 2 mcg/ml alone): 4.23 Log10 CFU/ml; Bacterial count (Log10 CFU/ml) 24 hours ([1]; Table 2, 2 mcg/ml alone): 3.54 Log10 CFU/ml
O=C(NOC[C@@H]1CCCN1)[C@@H]1CC[C@@H]2CN1C(=O)N2OS(=O)(=O)O [Compound (D)]	–	–	–	–	7.28	1.26	7.60	8.26	8.18	8.54	could not reduce the bacterial count	could not reduce the bacterial count	6.88	2.07	7.98	8.60	9.00	9.04	8.95	could not reduce the bacterial count	Change in Log10 CFU/ml over 0 hour count after 24 hours ([1]; Table 2, 2 mcg/ml alone): 0.22 Log10 CFU/ml; Bacterial count (Log10 CFU/ml) 2 hours ([1]; Table 2, 2 mcg/ml alone): 7.65 Log10 CFU/ml; Bacterial count (Log10 CFU/ml) 4 hours ([1]; Table 2, 2 mcg/ml alone): 7.30 Log10 CFU/ml; Bacterial count (Log10 CFU/ml) 6 hours ([1]; Table 2, 2 mcg/ml alone): 7.78 Log10 CFU/ml; Bacterial count (Log10 CFU/ml) 24 hours ([1]; Table 2, 2 mcg/ml alone): 7.30 Log10 CFU/ml
NCCONC(=O)[C@@H]1CC[C@@H]2CN1C(=O)N2OS(=O)(=O)O [Compound (E)]	–	–	–	–	7.28	1.26	7.60	8.26	8.18	8.54	could not reduce the bacterial count	could not reduce the bacterial count	6.88	2.16	8.04	8.74	8.90	9.20	9.04	could not reduce the bacterial count	Change in Log10 CFU/ml over 0 hour count after 24 hours ([1]; Table 2, 2 mcg/ml alone): 2.22 Log10 CFU/ml; Bacterial count (Log10 CFU/ml) 2 hours ([1]; Table 2, 2 mcg/ml alone): 8.02 Log10 CFU/ml; Bacterial count (Log10 CFU/ml) 4 hours ([1]; Table 2, 2 mcg/ml alone): 9.15 Log10 CFU/ml; Bacterial count (Log10 CFU/ml) 6 hours ([1]; Table 2, 2 mcg/ml alone): 9.11 Log10 CFU/ml; Bacterial count (Log10 CFU/ml) 24 hours ([1]; Table 2, 2 mcg/ml alone): 9.30 Log10 CFU/ml
C[C@@H](O)[C@H]1C(=O)N2C(C(=O)O)=C(SCCN=CN)C[C@H]12 [Imipenem, reference compound]	–	–	–	–	–	–	–	–	–	–	–	–	–	–	–	–	–	–	–	–	Bacterial count (Log10 CFU/ml) 0 hours ([2]; 8 mcg/ml alone): 7.28 Log10 CFU/ml; Change in Log10 CFU/ml over 0 hour count after 24 hours ([2]; 8 mcg/ml alone): 2.02 Log10 CFU/ml; Bacterial count (Log10 CFU/ml) 2 hours ([2]; 8 mcg/ml alone): 8.04 Log10 CFU/ml; Bacterial count (Log10 CFU/ml) 4 hours ([2]; 8 mcg/ml alone): 8.65 Log10 CFU/ml; Bacterial count (Log10 CFU/ml) 6 hours ([2]; 8 mcg/ml alone): 9.20 Log10 CFU/ml; Bacterial count (Log10 CFU/ml) 24 hours ([2]; 8 mcg/ml alone): 9.30 Log10 CFU/ml
C[C@]1(Cn2ccnn2)[C@H](C(=O)O)N2C(=O)C[C@H]2S1(=O)=O [Tazobactam, reference compound]	2.28	7.90	9.23	9.30	–	–	–	–	–	–	–	–	–	–	–	–	–	–	–	–	Bacterial count (Log10 CFU/ml) 8 hours ([1]; Table 5, 4 mcg/ml alone): 9.36 Log10 CFU/ml; Effect on bacterial count (in words) [1, 4]: did not reduce the bacterial count
